This is an account of results in the Kinase Knowledgebase extract (Sharma et al. 2016).

For orientation: IC50 means the concentration that gives 50% inhibition. Higher therefore signals weaker potency in that assay.

Chain of ROCK2 (human) (O75116 whole entry, looked up): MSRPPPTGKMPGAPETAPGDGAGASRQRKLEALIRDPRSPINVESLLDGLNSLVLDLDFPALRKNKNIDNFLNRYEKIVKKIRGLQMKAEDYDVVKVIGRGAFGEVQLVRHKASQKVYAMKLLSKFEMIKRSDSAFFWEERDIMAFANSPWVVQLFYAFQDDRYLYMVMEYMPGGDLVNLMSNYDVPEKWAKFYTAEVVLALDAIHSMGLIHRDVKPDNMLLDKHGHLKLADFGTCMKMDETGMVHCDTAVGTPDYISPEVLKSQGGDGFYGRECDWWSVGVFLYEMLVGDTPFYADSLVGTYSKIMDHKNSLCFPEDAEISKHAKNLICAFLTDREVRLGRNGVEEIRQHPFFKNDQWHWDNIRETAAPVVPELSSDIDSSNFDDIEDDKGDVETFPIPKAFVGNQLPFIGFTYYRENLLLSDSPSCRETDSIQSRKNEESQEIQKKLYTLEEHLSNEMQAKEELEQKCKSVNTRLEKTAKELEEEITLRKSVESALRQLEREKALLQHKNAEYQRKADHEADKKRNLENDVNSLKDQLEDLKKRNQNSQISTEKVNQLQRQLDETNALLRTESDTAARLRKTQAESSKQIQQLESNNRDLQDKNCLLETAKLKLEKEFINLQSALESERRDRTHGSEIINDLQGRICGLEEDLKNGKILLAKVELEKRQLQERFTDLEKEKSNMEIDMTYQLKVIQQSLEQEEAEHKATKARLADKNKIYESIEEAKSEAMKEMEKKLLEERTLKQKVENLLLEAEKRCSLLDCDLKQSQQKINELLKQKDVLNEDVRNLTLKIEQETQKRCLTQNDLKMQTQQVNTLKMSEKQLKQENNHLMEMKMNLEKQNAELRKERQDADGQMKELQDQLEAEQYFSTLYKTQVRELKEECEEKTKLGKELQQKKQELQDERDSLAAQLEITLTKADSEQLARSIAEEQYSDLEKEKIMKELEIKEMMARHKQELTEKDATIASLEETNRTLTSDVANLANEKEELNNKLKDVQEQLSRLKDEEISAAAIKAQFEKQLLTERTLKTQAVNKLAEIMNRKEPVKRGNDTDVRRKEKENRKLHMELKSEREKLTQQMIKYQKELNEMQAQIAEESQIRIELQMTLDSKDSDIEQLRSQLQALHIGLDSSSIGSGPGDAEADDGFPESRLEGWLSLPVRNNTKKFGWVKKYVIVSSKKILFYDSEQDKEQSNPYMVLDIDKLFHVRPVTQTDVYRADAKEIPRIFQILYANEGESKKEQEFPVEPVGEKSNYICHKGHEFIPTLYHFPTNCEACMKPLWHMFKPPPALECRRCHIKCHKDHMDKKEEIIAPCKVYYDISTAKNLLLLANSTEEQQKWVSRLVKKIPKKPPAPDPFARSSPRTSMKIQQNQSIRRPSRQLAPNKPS

This experiment addresses ROCK2 (human) (UniProt O75116). The experiment can be described thus: Inhibition of ROCK2 Kinase Activity.
Take `Cc1ccccc1C(=O)NCC(N)c1ccc(C(=O)Nc2ccncc2)cc1` (centres undefined): the IC50 is 500 to 5000 nM. For the compound `NC(CNC(=O)c1ccccc1-c1ccccc1)c1ccc(C(=O)Nc2ccncc2)cc1` (centres undefined), the IC50 is 500 to 5000 nM.

In turn, `NC(CC(=O)NCc1ccccc1Cl)c1ccc(C(=O)Nc2ccncc2)cc1` (centres undefined) yielded an IC50 of 50 to 500 nM. In turn, `CC(C)(C(=O)N1CCCC1C(N)c1ccc(C(=O)Nc2ccncc2)cc1)c1ccc(F)cc1` (centres undefined) had a 50% inhibitory concentration (IC50) of 500 to 5000 nM. The figure for `Cc1ccccc1CNC(=O)CC(N)c1ccc(C(=O)Nc2ccncc2)cc1` (centres undefined) is 50 to 500 nM; for `CN(CC(N)c1ccc(C(=O)Nc2ccncc2)cc1)C(=O)C1CC(=O)c2ccccc21` (centres undefined) it is 500 to 5000 nM; for `NC(c1ccc(C(=O)Nc2ccncc2)cc1)C1CCCN1C(=O)Cc1ccccc1F` (centres undefined) it is 50 to 500 nM. For `COc1cccc(CC(=O)N(C)CC(N)c2ccc(C(=O)Nc3ccncc3)cc2)c1` (centres undefined), the IC50 is 50 to 500 nM.

Turning to `NC(CNC(=O)c1ccnc2ccccc12)c1ccc(C(=O)Nc2ccncc2)cc1` (centres undefined), the IC50 fell in the range of 500 to 5000 nM.

The compound `NC(CNC(=O)c1cccc(Cl)c1)c1ccc(C(=O)Nc2ccncc2)cc1` (centres undefined) displayed an IC50 of 500 to 5000 nM. The figure for `COc1cccc(CC(=O)N2CCCC2C(N)c2ccc(C(=O)Nc3ccncc3)cc2)c1` (centres undefined) is 500 to 5000 nM; for `NC(c1ccc(C(=O)Nc2ccncc2)cc1)C1CCCN1C(=O)C1(c2ccc(F)cc2)CCC1` (centres undefined) it is 500 to 5000 nM; for `NC(CNC(=O)C1(c2ccc(Cl)c(Cl)c2)CC1)c1ccc(C(=O)Nc2ccncc2)cc1` (centres undefined) it is 50 to 500 nM.

In turn, `CCN(Cc1ccc([N+](=O)[O-])cc1)C(=O)CC(N)c1ccc(C(=O)Nc2ccncc2)cc1` (centres undefined) registered a half-maximal inhibitory concentration (IC50) of 50 to 500 nM. Consider `NC(CC(=O)NC(c1ccccc1)c1ccccc1)c1ccc(C(=O)Nc2ccncc2)cc1` (centres undefined), for which the IC50 fell in the range of 50 to 500 nM. In the case of `NC(CC(=O)N[C@@H]1CCCc2ccccc21)c1ccc(C(=O)Nc2ccncc2)cc1` (some centres undefined), the half-maximal inhibitory concentration (IC50) was in the range of 50 to 500 nM.

Turning to `Cc1cccc(Cl)c1CNC(=O)CC(N)c1ccc(C(=O)Nc2ccncc2)cc1` (centres undefined), the IC50 lay in the range of 50 to 500 nM. As to `NC(c1ccc(C(=O)Nc2ccncc2)cc1)C1CCCN1C(=O)Cc1ccc(F)cc1` (centres undefined), the IC50 lay within 500 to 5000 nM. `NC(c1ccc(C(=O)Nc2ccncc2)cc1)C1CCCN1C(=O)C1CCc2ccccc21` (centres undefined) yielded a concentration for half-maximal inhibition (IC50) of 500 to 5000 nM.

Compound `NC(CC(=O)NCc1cc(C(F)(F)F)cc(C(F)(F)F)c1)c1ccc(C(=O)Nc2ccncc2)cc1` (centres undefined) registered a 50% inhibitory concentration (IC50) of 50 to 500 nM. Compound `N#Cc1cccc(C(=O)NCC(N)c2ccc(C(=O)Nc3ccncc3)cc2)c1` (centres undefined) came in with an IC50 of 500 to 5000 nM. Regarding `NC(CC(=O)NCc1ccc(F)cc1)c1ccc(C(=O)Nc2ccncc2)cc1` (centres undefined), the IC50 lay within 50 to 500 nM. Take `NC(CNC(=O)C1(c2cccs2)CC1)c1ccc(C(=O)Nc2ccncc2)cc1` (centres undefined): the IC50 was in the range of 50 to 500 nM.

`NC(CNC(=O)c1ccc2c(c1)OCO2)c1ccc(C(=O)Nc2ccncc2)cc1` (centres undefined): the IC50 was 50 to 500 nM. As for `NC(CC(=O)NNC(=O)c1ccco1)c1ccc(C(=O)Nc2ccncc2)cc1` (centres undefined), the concentration for half-maximal inhibition (IC50) was 50 to 500 nM. Consider `NC(CNC(=O)Cc1ccccn1)c1ccc(C(=O)Nc2ccncc2)cc1` (centres undefined), for which the concentration for half-maximal inhibition (IC50) fell in the range of 500 to 5000 nM. Consider `COc1ccccc1CC(=O)N(C)CC(N)c1ccc(C(=O)Nc2ccncc2)cc1` (centres undefined), for which the IC50 was in the range of 500 to 5000 nM. The compound `NC(c1ccc(C(=O)Nc2ccncc2)cc1)C1CCCN1C(=O)C1CCCCc2ccc(F)cc21` (centres undefined) returned an IC50 of 5000 to 50000 nM. With `COc1ccc(CC(=O)NCC(N)c2ccc(C(=O)Nc3ccncc3)cc2)cc1` (centres undefined) the figure was 50 to 500 nM; with `NC(CC(=O)NCc1ccc(Br)cc1F)c1ccc(C(=O)Nc2ccncc2)cc1` (centres undefined), 50 to 500 nM; with `COc1ccc(C(=O)NCC(N)c2ccc(C(=O)Nc3ccncc3)cc2)cc1` (centres undefined), 500 to 5000 nM. Regarding `NC(CNC(=O)c1cccc(F)c1)c1ccc(C(=O)Nc2ccncc2)cc1` (centres undefined), the IC50 was 500 to 5000 nM. Compound `CN(CC(N)c1ccc(C(=O)Nc2ccncc2)cc1)C(=O)C(C)(C)c1ccc(F)c(F)c1` (centres undefined) came in with an IC50 of 500 to 5000 nM.

The compound `CC(CNC(=O)CC(N)c1ccc(C(=O)Nc2ccncc2)cc1)c1ccc(Cl)cc1` (centres undefined) returned a concentration for half-maximal inhibition (IC50) of 50 to 500 nM. The compound `CN(CC(N)c1ccc(C(=O)Nc2ccncc2)cc1)C(=O)Cc1ccc(Br)cc1` (centres undefined) showed an IC50 of 500 to 5000 nM. Regarding `NC(CNC(=O)C1(c2ccc(F)c(F)c2)CCC1)c1ccc(C(=O)Nc2ccncc2)cc1` (centres undefined), the concentration for half-maximal inhibition (IC50) lay in the range of 50 to 500 nM. The compound `COC1CCC(C(=O)NCC(N)c2ccc(C(=O)Nc3ccncc3)cc2)CC1` (centres undefined) displayed an IC50 of 500 to 5000 nM. `CCCCNC(=O)NCC(N)c1ccc(C(=O)Nc2ccncc2)cc1` (centres undefined) yielded an IC50 of 500 to 5000 nM. `NC(c1ccc(C(=O)Nc2ccncc2)cc1)C1CCCN1C(=O)C1Cc2ccccc21` (centres undefined) displayed a half-inhibitory concentration (IC50) of 50 to 500 nM. With `NC(CNC(=O)CNC(=O)c1ccco1)c1ccc(C(=O)Nc2ccncc2)cc1` (centres undefined) the figure was 50 to 500 nM.

Compound `CN(CC(N)c1ccc(C(=O)Nc2ccncc2)cc1)C(=O)C1(c2ccc(Cl)cc2)CCCC1` (centres undefined) displayed an IC50 of 500 to 5000 nM. In turn, `NC(CC(=O)NC1CCc2ccccc21)c1ccc(C(=O)Nc2ccncc2)cc1` (centres undefined) registered a half-inhibitory concentration (IC50) of 50 to 500 nM.

The compound `CN(CC(N)c1ccc(C(=O)Nc2ccncc2)cc1)C(=O)Cc1cccc(Cl)c1F` (centres undefined) came in with an IC50 of 500 to 5000 nM.

Compound `COc1ccc2[nH]c(C(=O)NCC(N)c3ccc(C(=O)Nc4ccncc4)cc3)cc2c1` (centres undefined) displayed a half-maximal inhibitory concentration (IC50) of 500 to 5000 nM. With `CN(CC(N)c1ccc(C(=O)Nc2ccncc2)cc1)C(=O)Cc1cccc(F)c1` (centres undefined) the figure was 500 to 5000 nM. Take `CCN(CC)c1ccc(C(=O)NCC(N)c2ccc(C(=O)Nc3ccncc3)cc2)cc1` (centres undefined): the IC50 fell in the range of 500 to 5000 nM. On to `NC(CNC(=O)CC1Cc2ccccc2C1)c1ccc(C(=O)Nc2ccncc2)cc1` (centres undefined), for which the IC50 was 50 to 500 nM. With `CCCC(=O)NCC(N)c1ccc(C(=O)Nc2ccncc2)cc1` (centres undefined), the half-maximal inhibitory concentration (IC50) was 500 to 5000 nM. The figure for `NC(CC(=O)NCc1ccc(OC(F)(F)F)cc1)c1ccc(C(=O)Nc2ccncc2)cc1` (centres undefined) is 50 to 500 nM; for `NC(CNC(=O)c1ccc(Oc2ccccc2)cc1)c1ccc(C(=O)Nc2ccncc2)cc1` (centres undefined) it is 500 to 5000 nM; for `COc1ccc(CNC(=O)CC(N)c2ccc(C(=O)Nc3ccncc3)cc2)c(OC)c1` (centres undefined) it is 50 to 500 nM. Consider `NC(CNC(=O)Nc1cccc2ccccc12)c1ccc(C(=O)Nc2ccncc2)cc1` (centres undefined), for which the half-inhibitory concentration (IC50) lay in the range of 50 to 500 nM. For `NC(c1ccc(C(=O)Nc2ccncc2)cc1)C1CCCN1C(=O)Cc1cccc(F)c1` (centres undefined), the concentration for half-maximal inhibition (IC50) lay within 500 to 5000 nM. The compound `CN(CC(N)c1ccc(C(=O)Nc2ccncc2)cc1)C(=O)C1(c2ccc(Cl)cc2F)CC1` (centres undefined) displayed a half-inhibitory concentration (IC50) of 500 to 5000 nM.

`Cc1cccc(CC(=O)N(C)CC(N)c2ccc(C(=O)Nc3ccncc3)cc2)c1` (centres undefined) had a 50% inhibitory concentration (IC50) of 500 to 5000 nM. `NC(c1ccc(C(=O)Nc2ccncc2)cc1)C1CCCN1C(=O)Cc1ccccc1` (centres undefined) displayed an IC50 of 50 to 500 nM. As to `NC(c1ccc(C(=O)Nc2ccncc2)cc1)C1CCCN1C(=O)C1CC(=O)c2ccccc21` (centres undefined), the IC50 was in the range of 500 to 5000 nM. The compound `NC(CNC(=O)C1(c2ccc(F)cc2)CC1)c1ccc(C(=O)Nc2ccncc2)cc1` (centres undefined) had a 50% inhibitory concentration (IC50) of under 200 nM. The compound `COc1ccccc1CNC(=O)CC(N)c1ccc(C(=O)Nc2ccncc2)cc1` (centres undefined) gave a half-maximal inhibitory concentration (IC50) of 50 to 500 nM. `COc1ccc(OC)c(CCNC(=O)CC(N)c2ccc(C(=O)Nc3ccncc3)cc2)c1` (centres undefined): the IC50 fell in the range of 50 to 500 nM.

On to `NC(c1ccc(C(=O)Nc2ccncc2)cc1)C1CCCN1C(=O)C1(c2ccc(F)c(F)c2)CCCC1` (centres undefined), for which the half-maximal inhibitory concentration (IC50) was in the range of 500 to 5000 nM. The figure for `NC(CNC(=O)c1ccc([N+](=O)[O-])o1)c1ccc(C(=O)Nc2ccncc2)cc1` (centres undefined) is 500 to 5000 nM. `NC(CNC(=O)C1CCCO1)c1ccc(C(=O)Nc2ccncc2)cc1` (centres undefined) showed an IC50 of 500 to 5000 nM. In turn, `NC(CC(=O)NCCc1ccc(Oc2ccccc2)cc1)c1ccc(C(=O)Nc2ccncc2)cc1` (centres undefined) displayed an IC50 of 50 to 500 nM.
